Among the test systems are LOX IMVI melanoma; NCI/ADR-RES ovarian; HCT-116 colon; MDA-MB-231 breast; MALME-3M melanoma; HCT-15 colon; CAKI-1 renal; SF-295 CNS; ACHN renal; RPMI-8226 leukemia.
Holding throughout (assay): NCI anticancer screen, dose series, 48 h

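1) Cells in 96-well plates. 2) Compound, 48 h, 5 concentrations. 3) Linear interpolation between surrounding doses. 4) Unreached endpoint = highest concentration. Here, GI50 denotes the concentration required for 50% inhibition of growth. TGI marks complete inhibition of growth.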

Take `C=CC[n+]1c2ccccc2n2cc([N+](=O)[O-])ccc21`: the TGI with LOX IMVI melanoma was more than 100 µM; with NCI/ADR-RES ovarian, more than 100 µM; with HCT-116 colon it was 78.7 µM; with MDA-MB-231 breast, more than 100 µM; with MALME-3M melanoma it was 30.2 µM; in the assay with HCT-15 colon, more than 100 µM. The TGI in the assay on CAKI-1 renal, in the assay with SF-295 CNS and in the assay with ACHN renal was more than 100 µM throughout.
On to `CCc1cc2c(c3c1CCCC3=O)CC1(Cc3ccc(C(=O)OC)cc3C1)C2` (configuration not stated), for which the TGI in the assay with LOX IMVI melanoma, with NCI/ADR-RES ovarian, in the assay on HCT-116 colon, in the assay with MDA-MB-231 breast, in the assay on MALME-3M melanoma and in the assay on HCT-15 colon was more than 100 µM throughout. Further, the TGI is more than 100 µM in the assay on CAKI-1 renal, more than 100 µM in the assay with SF-295 CNS, more than 100 µM in the assay with ACHN renal and 91 µM in the assay with RPMI-8226 leukemia.
On to `Cc1ccccc1N=C(N)Nc1ccccc1C`, for which the TGI in the assay on LOX IMVI melanoma, with NCI/ADR-RES ovarian, in the assay with HCT-116 colon, with MDA-MB-231 breast, in the assay with MALME-3M melanoma and in the assay with HCT-15 colon was more than 100 µM in each case. The TGI with CAKI-1 renal, in the assay with SF-295 CNS, with ACHN renal and with RPMI-8226 leukemia was more than 100 µM throughout.
For `Nc1nc(Cl)cc(NC23CC4CC(CC(C4)C2)C3)n1`, the TGI in the assay with NCI/ADR-RES ovarian, in the assay on HCT-116 colon, with MDA-MB-231 breast, in the assay on MALME-3M melanoma, in the assay on HCT-15 colon and with CAKI-1 renal was more than 100 µM each time. For the same compound, the TGI in the assay on SF-295 CNS, in the assay on ACHN renal and in the assay with RPMI-8226 leukemia was more than 100 µM in each case.
On to `COC(=O)C1C(=O)N(C)C(=O)N2CCCC12` (configuration not stated), for which the TGI in the assay with LOX IMVI melanoma, with NCI/ADR-RES ovarian, in the assay on MDA-MB-231 breast, in the assay with MALME-3M melanoma, with HCT-15 colon and in the assay with CAKI-1 renal was more than 100 µM throughout. For the same compound, the TGI with SF-295 CNS, in the assay on ACHN renal and in the assay on RPMI-8226 leukemia was more than 100 µM in each case.
For the compound `CN(C)CCCNc1ccc2nnn3c4ccc(O)cc4c(=O)c1c23`, the TGI was 4.12 µM in the assay on LOX IMVI melanoma; 21.8 µM in the assay with NCI/ADR-RES ovarian; 16 µM with HCT-116 colon; 23.6 µM in the assay with MDA-MB-231 breast; 23.1 µM in the assay on MALME-3M melanoma; 19.7 µM with HCT-15 colon. Also, the TGI in the assay with CAKI-1 renal stood at 13.1 µM; in the assay on SF-295 CNS, 18.7 µM; in the assay on ACHN renal, 13.5 µM; in the assay with RPMI-8226 leukemia, 29.6 µM.
Regarding `COc1cc(C2C(Cl)C(=O)N2c2c(C)n(C)n(-c3ccccc3)c2=O)ccc1O` (configuration not stated), the TGI with LOX IMVI melanoma is 32.2 µM; in the assay on NCI/ADR-RES ovarian, 75.8 µM; in the assay with HCT-116 colon it was 19.3 µM; in the assay on MDA-MB-231 breast it was 49.1 µM; in the assay with MALME-3M melanoma it was 61.9 µM; in the assay with CAKI-1 renal, more than 100 µM. In addition, the TGI with SF-295 CNS was found to be 50 µM; with ACHN renal, 34.9 µM; with RPMI-8226 leukemia it was 50.1 µM.
`C=C(C)CC1(O[Si](C)(C)C)C(=O)C(OCC)=C1OCC` (configuration not stated): the TGI in the assay with LOX IMVI melanoma, in the assay with NCI/ADR-RES ovarian, in the assay on HCT-116 colon, in the assay on MDA-MB-231 breast, with MALME-3M melanoma and with HCT-15 colon was more than 100 µM each time. Also, the TGI in the assay on CAKI-1 renal, with SF-295 CNS and in the assay with ACHN renal was more than 100 µM in each case.
On to `COc1ccc2cc(CNCCCCCCNCc3ccc4cc(OC)ccc4c3)ccc2c1`, for which the TGI with LOX IMVI melanoma turned out to be 0.325 µM; with NCI/ADR-RES ovarian it was 2.74 µM; in the assay with HCT-116 colon, 0.324 µM; in the assay on MDA-MB-231 breast, 1.38 µM; with MALME-3M melanoma, 2.62 µM; with HCT-15 colon, 1.39 µM. Further, the TGI in the assay on CAKI-1 renal is 2.71 µM; in the assay on SF-295 CNS, 0.961 µM; in the assay on ACHN renal it was 2.92 µM.
In the case of `COc1ccc(OC)c(SC(CC(=O)c2ccccc2)c2ccccc2)c1` (configuration not stated), the TGI in the assay with NCI/ADR-RES ovarian was determined as 32.4 µM; in the assay on HCT-116 colon, 11 µM; with MDA-MB-231 breast, 25.7 µM; with MALME-3M melanoma, 38.5 µM; in the assay on HCT-15 colon, 35.4 µM; in the assay on CAKI-1 renal it was 28.5 µM. In addition, the TGI with SF-295 CNS was 31.6 µM; in the assay on ACHN renal it was 39 µM.
With `O=C1CC(=O)n2cnc3cccc(c32)N1`, the TGI in the assay with NCI/ADR-RES ovarian, in the assay with HCT-116 colon, in the assay with MDA-MB-231 breast, in the assay on MALME-3M melanoma, in the assay on HCT-15 colon and with CAKI-1 renal was more than 100 µM in each case. The TGI in the assay on SF-295 CNS and in the assay with RPMI-8226 leukemia was more than 100 µM each time.
For `C/C(=N\NC(=S)N(C)C)c1cccnn1`, the TGI is more than 51.2 µM with LOX IMVI melanoma; 36.6 µM with NCI/ADR-RES ovarian; more than 25.9 µM with HCT-116 colon; more than 100 µM in the assay on MDA-MB-231 breast; more than 70.5 µM in the assay with MALME-3M melanoma; more than 100 µM in the assay on HCT-15 colon. Moreover, the values for the TGI in the assay with SF-295 CNS, in the assay on ACHN renal and with RPMI-8226 leukemia were more than 100 µM, 0.474 µM and more than 100 µM, respectively.
With `O=C(N/N=C/C=C/c1ccccc1)c1ccccc1Nc1ccccc1C(=O)N/N=C/C=C/c1ccccc1`, the TGI with NCI/ADR-RES ovarian, in the assay with HCT-116 colon, with MDA-MB-231 breast, with MALME-3M melanoma, with HCT-15 colon and in the assay with CAKI-1 renal was more than 100 µM throughout. Moreover, the TGI with SF-295 CNS, in the assay on ACHN renal and in the assay with RPMI-8226 leukemia was more than 100 µM each time.
As to `c1ccc(CN2CCC(Nc3ccccc3)(c3nnnn3Cc3ccccc3)CC2)cc1`, the TGI in the assay with LOX IMVI melanoma is 43.5 µM; in the assay on NCI/ADR-RES ovarian, more than 100 µM; in the assay on HCT-116 colon, 53.4 µM; in the assay with MDA-MB-231 breast, 88.9 µM; with MALME-3M melanoma it was 34.9 µM; in the assay with HCT-15 colon it was 97.9 µM. Besides, the TGI in the assay with SF-295 CNS was 44.8 µM; in the assay on ACHN renal it was more than 100 µM; in the assay on RPMI-8226 leukemia, more than 100 µM.
Consider `O=[N+]([O-])c1cccc(N=Nc2c(O)c(S(=O)(=O)O)cc3cc(S(=O)(=O)O)ccc23)c1`, for which the TGI with NCI/ADR-RES ovarian, in the assay on HCT-116 colon, in the assay with MDA-MB-231 breast, in the assay with MALME-3M melanoma, with HCT-15 colon and with CAKI-1 renal was more than 100 µM throughout. Further, the TGI in the assay on SF-295 CNS and in the assay with ACHN renal was more than 100 µM throughout.
Regarding `Cc1cc2c([nH]c3ccccc32)c(O)c1-c1c(C)cc2c([nH]c3ccccc32)c1O`, the TGI stood at 32.7 µM in the assay with LOX IMVI melanoma; 29.4 µM in the assay on NCI/ADR-RES ovarian; 27.2 µM in the assay with HCT-116 colon; 33 µM with MDA-MB-231 breast; 23.8 µM in the assay with HCT-15 colon; 27.9 µM with CAKI-1 renal. The TGI in the assay with SF-295 CNS came out at 33.4 µM; in the assay on ACHN renal it was 27.3 µM; in the assay with RPMI-8226 leukemia it was 18.5 µM. Further, the GI50 with HCT-15 colon was 10.1 µM; in the assay on CAKI-1 renal it was 14.7 µM; in the assay with SF-295 CNS, 17.4 µM; in the assay with RPMI-8226 leukemia, 3.85 µM.
Regarding `CCOC(=O)c1cc(C)nc2c1c(=O)n(-c1ccccc1)c(=O)n2CCCCN1CCN(c2ccccc2)CC1`, the TGI with LOX IMVI melanoma, with NCI/ADR-RES ovarian, with HCT-116 colon, in the assay with MDA-MB-231 breast, with MALME-3M melanoma and in the assay on HCT-15 colon was more than 100 µM each time. Moreover, the TGI in the assay on SF-295 CNS was more than 100 µM; with ACHN renal, more than 100 µM; with RPMI-8226 leukemia, 77.3 µM.
`CC(C)C(C/C=C1\CC(CO)(COC(=O)C2CCCCC2)OC1=O)C(C)C` (configuration not stated): the TGI in the assay on LOX IMVI melanoma worked out at 32.3 µM; in the assay on NCI/ADR-RES ovarian, 45.1 µM; in the assay on HCT-116 colon, 36.5 µM; in the assay on MDA-MB-231 breast it was 36.1 µM; in the assay on MALME-3M melanoma, 35.5 µM; in the assay on HCT-15 colon, 38.8 µM. Besides, the TGI in the assay with CAKI-1 renal turned out to be 43.8 µM; in the assay on SF-295 CNS, 33.2 µM; in the assay on ACHN renal, 32.3 µM.
For `CCOC(=O)Nn1c(CC#N)nnc1Cc1ccccc1`, the TGI with NCI/ADR-RES ovarian, with HCT-116 colon, with MDA-MB-231 breast, with MALME-3M melanoma, with HCT-15 colon and in the assay on CAKI-1 renal was more than 100 µM each time. Further, the TGI in the assay on SF-295 CNS, with ACHN renal and in the assay with RPMI-8226 leukemia was more than 100 µM each time.
For the compound `CC(C)=CCNc1nc(Cl)nc2nc[nH]c12`, the TGI was more than 100 µM with LOX IMVI melanoma; more than 100 µM in the assay on NCI/ADR-RES ovarian; 69.8 µM in the assay on HCT-116 colon; 68.2 µM in the assay with MDA-MB-231 breast; more than 100 µM in the assay with MALME-3M melanoma; more than 100 µM in the assay on CAKI-1 renal. Moreover, the TGI with SF-295 CNS, in the assay on ACHN renal and in the assay with RPMI-8226 leukemia was more than 100 µM throughout.
Consider `CCOP(=O)(OCC)/C(=C/c1cccs1)CC(C)=O`, for which the TGI with LOX IMVI melanoma, in the assay with NCI/ADR-RES ovarian, in the assay with HCT-116 colon, with MDA-MB-231 breast, in the assay with MALME-3M melanoma and in the assay with HCT-15 colon was more than 100 µM each time. Moreover, the TGI in the assay on CAKI-1 renal, in the assay on SF-295 CNS and in the assay with ACHN renal was more than 100 µM throughout.
Take `CC(C)(C)OC(=O)NCC(CNC(=O)OC(C)(C)C)c1nc(C(N)=O)cs1`: the TGI with LOX IMVI melanoma, with NCI/ADR-RES ovarian, with HCT-116 colon, in the assay with MDA-MB-231 breast, with MALME-3M melanoma and in the assay with HCT-15 colon was more than 100 µM each time. Also, the TGI with CAKI-1 renal, in the assay on SF-295 CNS and with ACHN renal was more than 100 µM in each case.

(Values after PubChem BioAssay (NCI).)
